What was measured:
[1] = tested on: Burkholderia glumae; assay: Test Example 1: production of QS signal molecules C6-HSL and C8-HSL (TLC, CV026 violacein detection); format: cell-based
Protocol: Burkholderia glumae was inoculated into an LB culture medium (produced by BD) (Difco LB Broth: containing tryptone (10.0 g), yeast extract (5.0 g), and sodium chloride (10.0 g)), and cultured at 37° C. overnight. The thus-cultured broth was subjected to bacterial collection using a centrifuge, washed with an LB culture medium twice using a fresh LB culture medium each time. […] Each of the broths was filtered by a membrane filter (0.22 μm). 0.5 mL of ethyl acetate was added to 0.5 mL of supernate from which bacteria were removed, and then the quorum sensing (QS) signal molecules were extracted using ethyl acetate. The thus-obtained ethyl acetate layer was concentrated under reduced pressure, and the residue was re-dissolved in 20 μL of methanol, producing a test liquid.
The test liquid (1 μL) was spotted on TLC to separate C6-HSL and C8-HSL, which are QS signal molecules, under the condition of developing solvent: methanol/water=70/30. After the development, a TLC plate was well dried and a culture solution containing QS signal molecule detection bacteria (Chromobacterium violaceum CV026 strain) that had been pre-cultured in an LB culture medium and agar was applied to the TLC plate, followed by the detection of C6-HSL and C8-HSL. Chromobacterium violaceum is known as a bacterium that produces purple pigment (violacein) using the QS; therefore, the CV026 strain can be used to detect QS signal molecules (Microbiology, (1997), 143, 3703-3711, (2004), 54(4), 921-934, (2007), 64(1), 165-179). After applying the detected bacteria to the TLC plate, the TLC plate was subjected to overnight cultivation at 28° C. and then detection using violacein. For quantitative determination, calibration curves showing the violacein production from C6-HSL and C8-HSL that had been chemically synthesized were obtained. From the calibration curves, the production amounts of the QS signal molecules of each compound were obtained.

[2] = tested on: Burkholderia glumae; assay: Test Example 6: onset of infection on rice, test liquid sprayed after infection; format: in vivo; details: for percentage of flower clusters with score 0: score 0 = less than 0.1% diseased; for percentage of flower clusters with score 0 / percentage of flower clusters with score 1 / percentage of flower clusters with score 2 / percentage of flower clusters with score 3 / percentage of flower clusters with score 4 / percentage of flower clusters with score 5: rice, 7 days; for percentage of flower clusters with score 1: score 1 = 0.1-20% diseased; for percentage of flower clusters with score 2: score 2 = 20-40% diseased; for percentage of flower clusters with score 3: score 3 = 40-60% diseased; for percentage of flower clusters with score 4: score 4 = 60-80% diseased; for percentage of flower clusters with score 5: score 5 = 80-100% diseased
Protocol: A test liquid and a culture solution for infection were prepared in the same manner as in Test Example 5, and the culture solution for infection was sprayed onto Korean rice (Milyang 23) raised in a hothouse until the flowering stage. One hour after the spraying, each test liquid (10 mL) was sprayed onto the rice. After cultivation for seven days, the onset of Burkholderia glumae infection on the rice was evaluated in the same manner as in Test Example 4. The same evaluation was conducted as the comparative test in the same manner except that water was used instead of the test liquid. Further, the same evaluation was conducted to serve as a blank using water instead of both the test liquid and the culture solution for infection.

[3] = 40 μM compound, 12 hours shake culturing
[4] = 40 μM compound, 24 hours shake culturing
[5] = 60 μM compound, 12 hours shake culturing
[6] = 60 μM compound, 24 hours shake culturing
[7] = 50 μM sprayed 1 h after infection
[8] = 100 μM sprayed 1 h after infection
[9] = 200 μM sprayed 1 h after infection

## CCCc1cc(=O)n2cccc(O)c2n1 [Compound (1), 2-n-propyl-9-hydroxy-4H-pyrid[1,2-a]pyrimidin-4-one]
[1]; [3]
  C6-HSL: 163 ng/mL
  C8-HSL: 14 µg/mL
[1]; [4]
  C6-HSL: 0 ng/mL
  C8-HSL: 0 µg/mL
[1]; [5]
  C6-HSL: 167 ng/mL
  C8-HSL: 13 µg/mL
[1]; [6]
  C6-HSL: 0 ng/mL
  C8-HSL: 0 µg/mL
[2]; [7]
  percentage of flower clusters with score 0: 88%
  percentage of flower clusters with score 1: 2%
  percentage of flower clusters with score 2: 4%
  percentage of flower clusters with score 3: 2%
  percentage of flower clusters with score 4: 2%
  percentage of flower clusters with score 5: 2%
[2]; [8]
  percentage of flower clusters with score 0: 85%
  percentage of flower clusters with score 1: 5%
  percentage of flower clusters with score 2: 3%
  percentage of flower clusters with score 3: 3%
  percentage of flower clusters with score 4: 2%
  percentage of flower clusters with score 5: 2%
[2]; [9]
  percentage of flower clusters with score 0: 89%
  percentage of flower clusters with score 1: 3%
  percentage of flower clusters with score 2: 3%
  percentage of flower clusters with score 3: 2%
  percentage of flower clusters with score 4: 2%
  percentage of flower clusters with score 5: 1%
[2]; test liquid 50, 100 or 200 μM sprayed after the culture solution for infection
  onset of Burkholderia glumae on rice: prevented

— patent US8507674B2, “Quorum sensing inhibitor” (The University of Tokyo, priority 2007, dated 2013)
